Assay results from article PMC7827406, “Structure–Activity Relationship (SAR) Study of Spautin-1 to Entail the Discovery of Novel NEK4 Inhibitors” (International Journal of Molecular Sciences, 2021).
Read-outs that look alike come from different tables or passages of the source.

How the values were obtained:
Assay in all cases: biochemical
Design in all cases: Eurofins KinaseProfiler full panel at Km ATP, residual kinase activity (%) relative to DMSO
NIM1(h) = biological target: T1, NIM1(h) (Homo sapiens, UniProt Q8IY84)
T1 construct: gene NIM1K
In short: (§1)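 Two 10 µM single-concentration screens were run: a competition-binding screen, in which DNA-tagged kinase bound to immobilized ligands was quantified by qPCR, and a radiometric activity panel at Km ATP. Each is expressed as residual kinase activity (%).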

SAPK2a(T106M)(h) = biological target: T2, SAPK2a(T106M)(h) (Homo sapiens, UniProt Q16539, T106M)
T2 construct: gene MAPK14
In short: as §1

PKD2(h) = biological target: T3, PKD2(h) (Homo sapiens, UniProt Q9BZL6)
T3 construct: gene PRKD2
T3 sequence (Q9BZL6 1-878): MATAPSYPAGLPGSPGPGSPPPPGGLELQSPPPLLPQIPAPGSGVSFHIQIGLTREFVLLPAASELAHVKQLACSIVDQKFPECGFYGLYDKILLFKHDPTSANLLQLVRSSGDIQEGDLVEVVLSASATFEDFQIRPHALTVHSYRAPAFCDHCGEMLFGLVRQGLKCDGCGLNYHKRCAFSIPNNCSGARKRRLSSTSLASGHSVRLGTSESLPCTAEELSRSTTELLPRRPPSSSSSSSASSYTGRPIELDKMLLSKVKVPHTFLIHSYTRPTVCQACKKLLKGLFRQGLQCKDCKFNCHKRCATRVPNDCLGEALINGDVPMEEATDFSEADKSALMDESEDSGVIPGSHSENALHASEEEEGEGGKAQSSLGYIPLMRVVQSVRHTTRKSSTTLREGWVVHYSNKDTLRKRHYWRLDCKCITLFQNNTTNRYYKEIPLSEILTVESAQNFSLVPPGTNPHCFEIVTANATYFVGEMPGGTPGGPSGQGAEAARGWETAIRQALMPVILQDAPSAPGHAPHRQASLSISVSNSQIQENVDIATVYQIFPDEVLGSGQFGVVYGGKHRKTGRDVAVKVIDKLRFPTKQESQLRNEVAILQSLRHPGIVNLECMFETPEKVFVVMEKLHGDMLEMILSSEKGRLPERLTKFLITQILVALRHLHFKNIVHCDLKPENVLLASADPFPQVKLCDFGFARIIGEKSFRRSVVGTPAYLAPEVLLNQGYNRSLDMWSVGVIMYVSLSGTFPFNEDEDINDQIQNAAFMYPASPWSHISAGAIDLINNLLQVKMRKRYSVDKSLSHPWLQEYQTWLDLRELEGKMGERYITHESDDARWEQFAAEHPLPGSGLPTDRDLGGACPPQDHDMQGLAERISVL
In short: as §1

PAK4(h) = PAK4(h) (Homo sapiens, UniProt O96013)
In short: as §1

LOK(h) = biological target: T4, LOK(h) (Homo sapiens, UniProt O94804)
T4 construct: gene STK10
In short: as §1

TrkC(h) = biological target: T5, TrkC(h) (Homo sapiens, UniProt Q16288)
T5 construct: gene NTRK3
In short: as §1

Syk(h) = Syk(h) (Homo sapiens, UniProt P43405)
In short: as §1

CDK7/cyclinH/MAT1(h) = CDK7/cyclinH/MAT1(h) (Homo sapiens, UniProt P50613)
In short: as §1

Yes(h) = biological target: T6, Yes(h) (Homo sapiens, UniProt P07947)
T6 construct: gene YES1
In short: as §1

Src(1-530)(h) = biological target: T7, Src(1-530)(h) (Homo sapiens, UniProt P12931)
T7 construct: residues 1-530
In short: as §1

Ros(h) = biological target: T8, Ros(h) (Homo sapiens, UniProt P08922)
T8 construct: gene ROS1
In short: as §1

[1] = read-out: Residual activity (%) Spautin-1 5aa
[2] = read-out: Residual activity (%) 5as
[3] = read-out: Residual activity (%) 5at
[4] = read-out: Residual activity (%) 5ay

T8 sequence (P08922 whole entry): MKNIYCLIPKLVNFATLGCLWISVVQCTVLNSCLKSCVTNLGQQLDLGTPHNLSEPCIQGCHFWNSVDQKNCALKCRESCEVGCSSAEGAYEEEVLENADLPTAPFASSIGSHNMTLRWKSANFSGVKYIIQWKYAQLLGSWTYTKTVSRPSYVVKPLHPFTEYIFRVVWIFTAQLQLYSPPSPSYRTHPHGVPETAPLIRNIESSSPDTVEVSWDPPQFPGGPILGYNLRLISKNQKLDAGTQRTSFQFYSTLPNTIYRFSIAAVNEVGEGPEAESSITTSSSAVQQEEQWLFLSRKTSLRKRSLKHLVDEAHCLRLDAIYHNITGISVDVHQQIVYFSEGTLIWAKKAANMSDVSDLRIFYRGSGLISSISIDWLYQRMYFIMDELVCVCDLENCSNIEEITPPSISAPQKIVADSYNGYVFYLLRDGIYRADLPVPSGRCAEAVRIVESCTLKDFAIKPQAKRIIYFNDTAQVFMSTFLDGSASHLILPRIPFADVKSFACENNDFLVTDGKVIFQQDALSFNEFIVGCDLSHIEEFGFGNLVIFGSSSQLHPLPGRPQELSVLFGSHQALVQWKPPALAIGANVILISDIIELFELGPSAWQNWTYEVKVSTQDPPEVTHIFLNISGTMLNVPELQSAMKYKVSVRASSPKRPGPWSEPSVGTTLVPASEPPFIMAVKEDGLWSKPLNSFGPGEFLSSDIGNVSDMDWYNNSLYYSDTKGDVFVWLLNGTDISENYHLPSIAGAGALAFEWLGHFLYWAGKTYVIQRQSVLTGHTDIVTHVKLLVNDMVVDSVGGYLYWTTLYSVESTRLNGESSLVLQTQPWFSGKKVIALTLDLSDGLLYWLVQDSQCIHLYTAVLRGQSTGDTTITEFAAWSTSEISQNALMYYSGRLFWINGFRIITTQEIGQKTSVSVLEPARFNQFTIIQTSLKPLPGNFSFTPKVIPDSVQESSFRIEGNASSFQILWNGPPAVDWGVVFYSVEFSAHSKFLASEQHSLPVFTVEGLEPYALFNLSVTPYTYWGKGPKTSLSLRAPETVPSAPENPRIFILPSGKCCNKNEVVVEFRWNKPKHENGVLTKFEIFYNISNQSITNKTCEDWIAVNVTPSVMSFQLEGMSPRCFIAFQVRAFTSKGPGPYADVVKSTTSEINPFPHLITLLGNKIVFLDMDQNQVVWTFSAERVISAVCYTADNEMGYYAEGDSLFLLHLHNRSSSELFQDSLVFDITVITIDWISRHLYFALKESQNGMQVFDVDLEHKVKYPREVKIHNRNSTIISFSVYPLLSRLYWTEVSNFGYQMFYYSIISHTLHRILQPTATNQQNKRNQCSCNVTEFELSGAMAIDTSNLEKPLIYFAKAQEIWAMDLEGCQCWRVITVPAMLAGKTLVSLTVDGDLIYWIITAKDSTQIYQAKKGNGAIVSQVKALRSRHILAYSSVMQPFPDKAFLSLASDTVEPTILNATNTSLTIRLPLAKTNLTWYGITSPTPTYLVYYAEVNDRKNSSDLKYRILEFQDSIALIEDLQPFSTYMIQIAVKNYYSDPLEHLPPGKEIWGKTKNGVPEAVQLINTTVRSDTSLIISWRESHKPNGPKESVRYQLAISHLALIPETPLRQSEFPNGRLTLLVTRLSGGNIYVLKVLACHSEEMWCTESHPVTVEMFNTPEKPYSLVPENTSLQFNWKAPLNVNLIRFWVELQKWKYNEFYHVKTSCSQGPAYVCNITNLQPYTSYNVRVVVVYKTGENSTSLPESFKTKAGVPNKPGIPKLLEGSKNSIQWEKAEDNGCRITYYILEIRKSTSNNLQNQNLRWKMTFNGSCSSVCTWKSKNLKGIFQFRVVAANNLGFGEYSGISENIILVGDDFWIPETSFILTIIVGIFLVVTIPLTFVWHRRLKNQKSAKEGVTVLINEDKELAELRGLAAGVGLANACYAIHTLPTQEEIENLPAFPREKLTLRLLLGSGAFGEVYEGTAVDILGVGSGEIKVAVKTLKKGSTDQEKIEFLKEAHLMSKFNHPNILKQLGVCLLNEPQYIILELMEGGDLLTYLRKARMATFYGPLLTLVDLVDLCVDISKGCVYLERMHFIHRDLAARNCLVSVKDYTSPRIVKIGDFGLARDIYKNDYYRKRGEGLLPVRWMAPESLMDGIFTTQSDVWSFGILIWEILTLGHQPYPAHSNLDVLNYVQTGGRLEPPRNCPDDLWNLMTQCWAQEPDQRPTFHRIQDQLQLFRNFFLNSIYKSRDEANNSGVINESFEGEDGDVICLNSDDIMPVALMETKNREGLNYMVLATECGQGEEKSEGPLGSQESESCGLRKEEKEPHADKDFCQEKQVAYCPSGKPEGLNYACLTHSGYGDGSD
T5 sequence (Q16288 whole entry): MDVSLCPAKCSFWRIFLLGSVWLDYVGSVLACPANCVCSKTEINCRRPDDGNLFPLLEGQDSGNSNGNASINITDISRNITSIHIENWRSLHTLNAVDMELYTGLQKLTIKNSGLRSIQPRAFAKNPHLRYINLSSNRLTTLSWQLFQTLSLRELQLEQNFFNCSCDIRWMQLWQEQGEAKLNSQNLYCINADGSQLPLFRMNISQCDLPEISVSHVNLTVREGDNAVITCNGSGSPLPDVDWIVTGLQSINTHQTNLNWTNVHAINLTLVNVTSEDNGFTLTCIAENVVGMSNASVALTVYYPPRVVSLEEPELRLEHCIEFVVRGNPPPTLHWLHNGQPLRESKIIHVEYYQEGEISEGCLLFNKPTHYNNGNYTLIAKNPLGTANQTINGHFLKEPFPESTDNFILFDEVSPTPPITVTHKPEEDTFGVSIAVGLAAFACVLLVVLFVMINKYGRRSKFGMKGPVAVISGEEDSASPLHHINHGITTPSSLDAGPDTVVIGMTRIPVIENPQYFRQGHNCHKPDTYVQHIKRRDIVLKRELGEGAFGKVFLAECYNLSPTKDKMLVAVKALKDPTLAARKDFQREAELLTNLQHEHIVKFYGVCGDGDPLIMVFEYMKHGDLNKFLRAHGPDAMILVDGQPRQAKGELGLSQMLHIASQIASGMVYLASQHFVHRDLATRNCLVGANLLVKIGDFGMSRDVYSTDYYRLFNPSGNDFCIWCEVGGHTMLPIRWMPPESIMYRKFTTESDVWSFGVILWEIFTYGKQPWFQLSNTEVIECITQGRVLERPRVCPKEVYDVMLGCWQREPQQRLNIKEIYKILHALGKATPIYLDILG
T2 sequence (Q16539 whole entry T106M): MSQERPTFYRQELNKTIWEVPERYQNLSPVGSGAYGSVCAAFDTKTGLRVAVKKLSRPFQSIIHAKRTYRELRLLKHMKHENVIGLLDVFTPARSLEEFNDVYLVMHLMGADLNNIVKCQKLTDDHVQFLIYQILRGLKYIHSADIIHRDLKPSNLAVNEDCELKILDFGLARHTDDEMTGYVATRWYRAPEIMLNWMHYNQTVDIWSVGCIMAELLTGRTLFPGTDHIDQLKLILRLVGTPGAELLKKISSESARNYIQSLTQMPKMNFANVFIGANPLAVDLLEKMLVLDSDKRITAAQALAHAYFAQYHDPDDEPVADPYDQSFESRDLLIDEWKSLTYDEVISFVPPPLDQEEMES
T1 sequence (Q8IY84 whole entry): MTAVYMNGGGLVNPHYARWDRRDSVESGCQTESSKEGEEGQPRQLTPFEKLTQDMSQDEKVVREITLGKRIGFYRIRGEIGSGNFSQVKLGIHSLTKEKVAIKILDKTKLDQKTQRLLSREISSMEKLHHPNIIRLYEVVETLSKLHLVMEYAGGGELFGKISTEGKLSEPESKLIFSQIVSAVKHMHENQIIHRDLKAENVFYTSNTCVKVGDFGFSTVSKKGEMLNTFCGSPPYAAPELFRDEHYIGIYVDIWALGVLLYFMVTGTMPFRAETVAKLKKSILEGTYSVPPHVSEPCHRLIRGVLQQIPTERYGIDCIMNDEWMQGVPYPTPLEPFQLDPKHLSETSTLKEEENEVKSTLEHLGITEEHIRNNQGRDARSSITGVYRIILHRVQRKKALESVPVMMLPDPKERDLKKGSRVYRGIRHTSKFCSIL
T6 sequence (P07947 whole entry): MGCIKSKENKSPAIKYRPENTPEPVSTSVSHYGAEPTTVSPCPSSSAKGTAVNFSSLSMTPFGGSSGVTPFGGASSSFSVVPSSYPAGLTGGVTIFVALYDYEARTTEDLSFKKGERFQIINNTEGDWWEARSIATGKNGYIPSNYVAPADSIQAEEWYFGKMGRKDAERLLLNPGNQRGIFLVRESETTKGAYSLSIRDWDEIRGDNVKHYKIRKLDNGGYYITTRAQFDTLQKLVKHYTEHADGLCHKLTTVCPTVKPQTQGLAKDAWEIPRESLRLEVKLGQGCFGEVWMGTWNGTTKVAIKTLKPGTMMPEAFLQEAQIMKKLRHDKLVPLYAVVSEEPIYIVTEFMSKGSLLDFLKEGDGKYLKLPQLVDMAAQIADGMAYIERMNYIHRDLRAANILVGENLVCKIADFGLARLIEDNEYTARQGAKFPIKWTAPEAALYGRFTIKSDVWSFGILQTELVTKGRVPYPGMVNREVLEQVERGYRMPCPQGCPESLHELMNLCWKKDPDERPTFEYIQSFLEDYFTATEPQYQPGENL
T7 sequence (P12931 whole entry, the tested form may be a part): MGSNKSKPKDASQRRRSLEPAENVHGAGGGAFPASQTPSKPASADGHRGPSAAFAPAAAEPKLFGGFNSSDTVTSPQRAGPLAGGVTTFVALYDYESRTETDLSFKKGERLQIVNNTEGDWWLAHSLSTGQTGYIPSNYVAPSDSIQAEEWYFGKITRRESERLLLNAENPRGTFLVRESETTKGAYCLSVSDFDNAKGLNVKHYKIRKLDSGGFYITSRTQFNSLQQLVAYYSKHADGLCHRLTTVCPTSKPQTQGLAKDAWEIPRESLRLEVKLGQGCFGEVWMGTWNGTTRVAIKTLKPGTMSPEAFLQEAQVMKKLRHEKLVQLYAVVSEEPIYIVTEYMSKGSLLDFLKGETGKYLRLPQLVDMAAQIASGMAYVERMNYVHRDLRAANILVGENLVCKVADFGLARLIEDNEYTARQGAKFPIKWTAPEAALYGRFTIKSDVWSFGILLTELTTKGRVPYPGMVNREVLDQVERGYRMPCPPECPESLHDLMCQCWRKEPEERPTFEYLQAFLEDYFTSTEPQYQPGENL

For `Fc1ccc(CNc2ncnc3ccc(F)cc23)cc1` [5aa, 6-Fluoro-N-(4-fluorobenzyl)-4-Quinazolinamine], the remaining activity at 10 µM (NIM1(h); [1]) was 108%, the remaining activity at 10 µM (SAPK2a(T106M)(h); [1]) was 95% and the remaining activity at 10 µM (PKD2(h); [1]) was 106%. It also gave a remaining activity at 10 µM (PAK4(h); [1]) of 90%, a remaining activity at 10 µM (LOK(h); [1]) of 91% and a remaining activity at 10 µM (TrkC(h); [1]) of 111%. For the same compound, the remaining activity at 10 µM (Syk(h); [1]) was 113%, the remaining activity at 10 µM (CDK7/cyclinH/MAT1(h); [1]) was 62% and the remaining activity at 10 µM (Yes(h); [1]) was 92%. It also gave a remaining activity at 10 µM (Src(1-530)(h); [1]) of 107% and a remaining activity at 10 µM (Ros(h); [1]) of 95%.
In the case of `Fc1ccc(CCNc2ncnc3ccc(F)cc23)cc1` [5as, 6-Fluoro-N-[2-(4-Fluorophenyl)Ethyl]-4-Quinazolinamine], the remaining activity at 10 µM (NIM1(h); [2]) was 113%, the remaining activity at 10 µM (SAPK2a(T106M)(h); [2]) was 115% and the remaining activity at 10 µM (PKD2(h); [2]) was 74%. It also gave a remaining activity at 10 µM (PAK4(h); [2]) of 92%, a remaining activity at 10 µM (LOK(h); [2]) of 81% and a remaining activity at 10 µM (TrkC(h); [2]) of 104%. It also gave a remaining activity at 10 µM (Syk(h); [2]) of 84%, a remaining activity at 10 µM (CDK7/cyclinH/MAT1(h); [2]) of 49% and a remaining activity at 10 µM (Yes(h); [2]) of 86%. It also gave a remaining activity at 10 µM (Src(1-530)(h); [2]) of 101% and a remaining activity at 10 µM (Ros(h); [2]) of 101%.
`Fc1ccc2ncnc(NCCc3ccc(Cl)cc3)c2c1` [5at, N-[2-(4-Chlorophenyl)Ethyl]-6-Fluoro-4-Quinazolinamine] showed a remaining activity at 10 µM (NIM1(h); [3]) of 110%, a remaining activity at 10 µM (SAPK2a(T106M)(h); [3]) of 103% and a remaining activity at 10 µM (PKD2(h); [3]) of 76%. For the same compound, the remaining activity at 10 µM (PAK4(h); [3]) was 90%, the remaining activity at 10 µM (LOK(h); [3]) was 87% and the remaining activity at 10 µM (TrkC(h); [3]) was 97%. For the same compound, the remaining activity at 10 µM (Syk(h); [3]) was 92%, the remaining activity at 10 µM (CDK7/cyclinH/MAT1(h); [3]) was 59% and the remaining activity at 10 µM (Yes(h); [3]) was 84%. The remaining activity at 10 µM (Src(1-530)(h); [3]) was 81% and the remaining activity at 10 µM (Ros(h); [3]) was 105%.
For `COc1ccc2ncnc(Nc3cccc(F)c3)c2c1` [5ay, N-(3-Fluorophenyl)-6-Methoxy-4-Quinazolinamine], the remaining activity at 10 µM (NIM1(h); [4]) was 97%, the remaining activity at 10 µM (SAPK2a(T106M)(h); [4]) was 121% and the remaining activity at 10 µM (PKD2(h); [4]) was 77%. It also gave a remaining activity at 10 µM (PAK4(h); [4]) of 83%, a remaining activity at 10 µM (LOK(h); [4]) of 35% and a remaining activity at 10 µM (TrkC(h); [4]) of 114%. The remaining activity at 10 µM (Syk(h); [4]) was 110%, the remaining activity at 10 µM (CDK7/cyclinH/MAT1(h); [4]) was 58% and the remaining activity at 10 µM (Yes(h); [4]) was 72%. The remaining activity at 10 µM (Src(1-530)(h); [4]) was 90% and the remaining activity at 10 µM (Ros(h); [4]) was 101%.
